These results are taken from publication PMC10065276, “Enhanced therapeutic window for antimicrobial Pept-ins by investigating their structure-activity relationship” (PLOS ONE, 2023).

Each structure is given as a SMILES string. Where two headings read alike, the source gives them in different places. Residues, ends and D or L forms follow the SMILES beside them. Some results are limits rather than exact numbers.

The assay deals with E. coli BL21. The procedure, abridged:
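EUCAST broth microdilution in Mueller-Hinton medium; end-exponential culture diluted to 0.005 McF (~1.5x10^6 CFU/mL) before 1:1 mixing with two-fold peptide dilutions (0.75 to 100 μg/mL), triplicates.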

`CC(C)C[C@H](NC(=O)CNC(=O)[C@H](CCCNC(=N)N)NC(=O)[C@@H]1CCCN1C(=O)[C@H](CCCNC(=N)N)NC(=O)[C@H](CCCNC(=N)N)NC(=O)[C@@H](NC(=O)[C@H](CC(C)C)NC(=O)[C@H](C)NC(=O)[C@H](C)NC(=O)CNC(=O)[C@H](CC(C)C)NC(=O)CNC(=O)[C@@H](N)CCCNC(=N)N)C(C)C)C(=O)NCC(=O)N[C@@H](CC(C)C)C(=O)N[C@@H](C)C(=O)N[C@@H](CC(C)C)C(=O)N[C@H](C(=O)N[C@@H](CCCNC(=N)N)C(=O)N[C@@H](CCCNC(=N)N)C(=O)O)C(C)C` [Peptide P2_L5A] (H-RGLGAALVRRPRGLGLALVRR-OH): the “BL21 MIC” value (BL21, 17 h) amounted to 50.00 µg/mL. The same measure, in the same setting: the result for `CC(C)C[C@H](NC(=O)CNC(=O)[C@H](CCCNC(=N)N)NC(=O)[C@@H]1CCCN1C(=O)[C@H](CCCNC(=N)N)NC(=O)[C@H](CCCNC(=N)N)NC(=O)[C@@H](NC(=O)[C@H](C)NC(=O)[C@H](C)NC(=O)[C@H](CC(C)C)NC(=O)CNC(=O)[C@H](CC(C)C)NC(=O)CNC(=O)[C@@H](N)CCCNC(=N)N)C(C)C)C(=O)NCC(=O)N[C@@H](CC(C)C)C(=O)N[C@@H](C)C(=O)N[C@@H](CC(C)C)C(=O)N[C@H](C(=O)N[C@@H](CCCNC(=N)N)C(=O)N[C@@H](CCCNC(=N)N)C(=O)O)C(C)C` [Peptide P2_L7A] (H-RGLGLAAVRRPRGLGLALVRR-OH) reads 50.00 µg/mL; that for `CC(C)C[C@H](NC(=O)CNC(=O)[C@@H](N)CCCNC(=N)N)C(=O)NCC(=O)N[C@@H](CC(C)C)C(=O)N[C@@H](C)C(=O)N[C@@H](CC(C)C)C(=O)N[C@H](C(=O)N[C@@H](CCCNC(=N)N)C(=O)N[C@@H](CCCNC(=N)N)C(=O)N1CCC[C@H]1C(=O)N[C@@H](CCCNC(=N)N)C(=O)NCC(=O)N[C@@H](C)C(=O)NCC(=O)N[C@@H](CC(C)C)C(=O)N[C@@H](C)C(=O)N[C@@H](CC(C)C)C(=O)N[C@H](C(=O)N[C@@H](CCCNC(=N)N)C(=O)N[C@@H](CCCNC(=N)N)C(=O)O)C(C)C)C(C)C` [Peptide P2_L14A] (H-RGLGLALVRRPRGAGLALVRR-OH), 25.00 µg/mL.

In the case of `CC(C)C[C@H](NC(=O)CNC(=O)[C@H](CCCNC(=N)N)NC(=O)[C@@H]1CCCN1C(=O)[C@H](CCCNC(=N)N)NC(=O)[C@H](CCCNC(=N)N)NC(=O)[C@@H](NC(=O)[C@H](CC(C)C)NC(=O)[C@H](C)NC(=O)[C@H](CC(C)C)NC(=O)CNC(=O)[C@H](CC(C)C)NC(=O)CNC(=O)[C@@H](N)CCCNC(=N)N)C(C)C)C(=O)NCC(=O)N[C@@H](C)C(=O)N[C@@H](C)C(=O)N[C@@H](CC(C)C)C(=O)N[C@H](C(=O)N[C@@H](CCCNC(=N)N)C(=O)N[C@@H](CCCNC(=N)N)C(=O)O)C(C)C` [Peptide P2_L16A] (H-RGLGLALVRRPRGLGAALVRR-OH), the “BL21 MIC” value (BL21, 17 h) was determined as 50.00 µg/mL. In the case of `CC(C)C[C@H](NC(=O)CNC(=O)[C@H](CCCNC(=N)N)NC(=O)[C@@H]1CCCN1C(=O)[C@H](CCCNC(=N)N)NC(=O)[C@H](CCCNC(=N)N)NC(=O)[C@@H](NC(=O)[C@H](CC(C)C)NC(=O)[C@H](C)NC(=O)[C@H](CC(C)C)NC(=O)CNC(=O)[C@H](CC(C)C)NC(=O)CNC(=O)[C@@H](N)CCCNC(=N)N)C(C)C)C(=O)NCC(=O)N[C@@H](CC(C)C)C(=O)N[C@@H](C)C(=O)N[C@@H](C)C(=O)N[C@H](C(=O)N[C@@H](CCCNC(=N)N)C(=O)N[C@@H](CCCNC(=N)N)C(=O)O)C(C)C` [Peptide P2_L18A] (H-RGLGLALVRRPRGLGLAAVRR-OH), under “BL21, 17 h”, the “BL21 MIC” value stood at 50.00 µg/mL. With `CC(C)C[C@H](NC(=O)CNC(=O)[C@H](CC(N)=O)NC(=O)[C@@H]1CCCN1C(=O)[C@H](CC(N)=O)NC(=O)[C@H](CC(N)=O)NC(=O)[C@@H](NC(=O)[C@H](CC(C)C)NC(=O)[C@H](C)NC(=O)[C@H](CC(C)C)NC(=O)CNC(=O)[C@H](CC(C)C)NC(=O)CNC(=O)[C@@H](N)CC(N)=O)C(C)C)C(=O)NCC(=O)N[C@@H](CC(C)C)C(=O)N[C@@H](C)C(=O)N[C@@H](CC(C)C)C(=O)N[C@H](C(=O)N[C@@H](CC(N)=O)C(=O)N[C@@H](CC(N)=O)C(=O)O)C(C)C` [Peptide P2_N] (H-NGLGLALVNNPNGLGLALVNN-OH), the “BL21 MIC” value (S1 Table, gatekeeper modification, broth microdilution, MH medium, 37°C, 17 h) was >100.00 µg/mL.
